The assay has as its target T1, human HSL (Homo sapiens, UniProt Q05469).
T1 construct: overlapping PCR to generate a full length human HSL ORF with a 3′-His6 tag; His6 (C); made in house; host or cells: High 5 insect cells (baculovirus, pFast-BAC)
T1 sequence (Q05469 1-1076): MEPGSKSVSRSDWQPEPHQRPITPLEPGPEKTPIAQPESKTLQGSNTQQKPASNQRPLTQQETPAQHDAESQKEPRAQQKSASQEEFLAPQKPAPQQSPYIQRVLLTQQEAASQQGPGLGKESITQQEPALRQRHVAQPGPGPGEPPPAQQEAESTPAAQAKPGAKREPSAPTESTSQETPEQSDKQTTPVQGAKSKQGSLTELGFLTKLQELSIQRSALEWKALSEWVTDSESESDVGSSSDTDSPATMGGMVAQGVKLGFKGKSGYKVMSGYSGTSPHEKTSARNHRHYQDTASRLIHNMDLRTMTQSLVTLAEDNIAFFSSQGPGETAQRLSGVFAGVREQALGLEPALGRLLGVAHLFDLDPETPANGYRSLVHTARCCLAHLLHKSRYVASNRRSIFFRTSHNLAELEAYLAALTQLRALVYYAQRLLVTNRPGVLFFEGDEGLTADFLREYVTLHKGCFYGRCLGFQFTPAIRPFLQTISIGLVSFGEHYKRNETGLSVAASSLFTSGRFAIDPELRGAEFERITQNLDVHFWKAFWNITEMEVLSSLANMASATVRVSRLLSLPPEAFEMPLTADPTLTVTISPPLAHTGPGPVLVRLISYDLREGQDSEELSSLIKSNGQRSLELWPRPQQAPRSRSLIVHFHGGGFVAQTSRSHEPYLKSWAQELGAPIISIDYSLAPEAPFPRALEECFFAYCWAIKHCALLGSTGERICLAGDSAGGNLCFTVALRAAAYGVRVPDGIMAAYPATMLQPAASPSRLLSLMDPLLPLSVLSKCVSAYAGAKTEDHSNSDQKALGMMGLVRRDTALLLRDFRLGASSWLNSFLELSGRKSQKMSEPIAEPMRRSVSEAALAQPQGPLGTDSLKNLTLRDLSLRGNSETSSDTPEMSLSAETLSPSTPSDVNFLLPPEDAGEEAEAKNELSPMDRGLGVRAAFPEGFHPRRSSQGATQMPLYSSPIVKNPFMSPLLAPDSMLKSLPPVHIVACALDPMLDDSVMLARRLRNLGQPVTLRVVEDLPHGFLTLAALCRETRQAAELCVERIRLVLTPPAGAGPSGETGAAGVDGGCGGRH
Kind of assay: Human Hormone-Sensitive Lipase (HSL) Enzyme Inhibition Assay. The assay is classed as biochemical. The note with it: colorimetric assay, 2,3-dimercapto-1-propanol tributyrate (DMPT) substrate, 37° C. for 20 minutes, absorbance at 405 nm; read-out: HSL hum IC50. A digest of the protocol:
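Colorimetric thioester hydrolysis: compounds in DMSO series mixed with DMPT (1.5 mM) in MOPS pH 7.2 with BSA, then baculovirus-expressed His6-tagged full-length human HSL added, 37° C, 20 min. DTNB plus detergents added, 15 min room temperature, absorbance at 405 nm.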

`CC(C)CS(=O)(=O)N1CCC2(CCN(c3ccc(OS(=O)(=O)C4CC4)cc3)C2=O)CC1` [Example 64, Cyclopropanesulfonic acid 4-[8-(2-methyl-propane-1-sulfonyl)-1-oxo-2,8-diaza-spiro[4.5]dec-2-yl]-phenyl ester]: the IC50 (in general, the concentration at which inhibition is half-maximal) came to 220 nM.

As to `CC(C)CS(=O)(=O)N1CCC2(CCN(c3ccc(C4CC4)cc3)C2=O)CC1` [Example 65, 2-(4-Cyclopropyl-phenyl)-8-(2-methyl-propane-1-sulfonyl)-2,8-diaza-spiro[4.5]decan-1-one], the IC50 is 100 nM.

Take `CC(C)CS(=O)(=O)N1CCC2(CCN(c3ccc(OC4CCCC4)cc3)C2=O)CC1` [Example 66, 2-(4-Cyclopentyloxy-phenyl)-8-(2-methyl-propane-1-sulfonyl)-2,8-diaza-spiro[4.5]decan-1-one]: the IC50 amounted to 160 nM.

Take `CCc1ccc(N2CCC3(CCN(S(=O)(=O)c4ccccc4C(F)(F)F)CC3)C2=O)cc1` [Example 67, 2-(4-Ethyl-phenyl)-8-(2-trifluoromethyl-benzenesulfonyl)-2,8-diaza-spiro[4.5]decan-1-one]: the IC50 came to 60 nM.

Regarding `O=C1N(c2ccc(OC(F)(F)F)cc2)CCC12CCN(S(=O)(=O)c1ccccc1C(F)(F)F)CC2` [Example 68, 2-(4-Trifluoromethoxy-phenyl)-8-(2-trifluoromethyl-benzenesulfonyl)-2,8-diaza-spiro[4.5]decan-1-one], the IC50 is 40 nM.

As to `CCc1ccc(N2CCC3(CCN(S(=O)(=O)c4ccc(C(F)(F)F)cc4Cl)CC3)C2=O)cc1` [Example 69, 8-(2-Chloro-4-trifluoromethyl-benzenesulfonyl)-2-(4-ethyl-phenyl)-2,8-diaza-spiro[4.5]decan-1-one], the IC50 was 310 nM.

`O=C1N(c2ccc(OC(F)(F)F)cc2)CCC12CCN(S(=O)(=O)c1ccc(C(F)(F)F)cc1Cl)CC2` [Example 70, 8-(2-Chloro-4-trifluoromethyl-benzenesulfonyl)-2-(4-trifluoromethoxy-phenyl)-2,8-diaza-spiro[4.5]decan-1-one]: the IC50 is 140 nM.

Regarding `O=C1N(c2ccc(C3CC3)cc2)CCC12CCN(S(=O)(=O)c1ccccc1C(F)(F)F)CC2` [Example 71, 2-(4-Cyclopropyl-phenyl)-8-(2-trifluoromethyl-benzenesulfonyl)-2,8-diaza-spiro[4.5]decan-1-one], the IC50 was found to be 80 nM.

For the compound `O=C1N(c2ccc(C3CC3)cc2)CCC12CCN(S(=O)(=O)c1ccc(F)cc1C(F)(F)F)CC2` [Example 72, 2-(4-Cyclopropyl-phenyl)-8-(4-fluoro-2-trifluoromethyl-benzenesulfonyl)-2,8-diaza-spiro[4.5]decan-1-one], the IC50 is 110 nM.

In the case of `O=C1N(c2ccc(CC(F)(F)F)cc2)CCC12CCN(S(=O)(=O)c1ccccc1C(F)(F)F)CC2` [Example 73, 2-[4-(2,2,2-Trifluoro-ethyl)-phenyl]-8-(2-trifluoromethyl-benzenesulfonyl)-2,8-diaza-spiro[4.5]decan-1-one], the IC50 came out at 80 nM.

As to `CCc1ccc(N2CCC3(CCN(S(=O)(=O)c4ccccc4I)CC3)C2=O)cc1` [Example 74, 2-(4-Ethyl-phenyl)-8-(2-iodo-benzenesulfonyl)-2,8-diaza-spiro[4.5]decan-1-one], the IC50 came out at 200 nM.

In the case of `CCc1ccc(N2CCC3(CCN(S(=O)(=O)c4ccc(F)cc4C(F)(F)F)CC3)C2=O)cc1` [Example 75, 2-(4-Ethyl-phenyl)-8-(4-fluoro-2-trifluoromethyl-benzenesulfonyl)-2,8-diaza-spiro[4.5]decan-1-one], the IC50 is 260 nM.

Turning to `O=C1N(c2ccc(OC(F)(F)F)cc2)CCC12CCN(S(=O)(=O)c1ccc(F)cc1C(F)(F)F)CC2` [Example 76, 8-(4-Fluoro-2-trifluoromethyl-benzenesulfonyl)-2-(4-trifluoromethoxy-phenyl)-2,8-diaza-spiro[4.5]decan-1-one], the IC50 stood at 190 nM.

Turning to `O=C1N(c2ccc(C3CC3)cc2)CCC12CCN(S(=O)(=O)c1ccc(C(F)(F)F)cc1Cl)CC2` [Example 77, 8-(2-Chloro-4-trifluoromethyl-benzenesulfonyl)-2-(4-cyclopropyl-phenyl)-2,8-diaza-spiro[4.5]decan-1-one], the IC50 was 180 nM.

Regarding `O=C1N(c2ccc(CC(F)(F)F)cc2)CCC12CCN(S(=O)(=O)c1ccccc1OC(F)(F)F)CC2` [Example 78, 2-[4-(2,2,2-Trifluoro-ethyl)-phenyl]-8-(2-trifluoromethoxy-benzenesulfonyl)-2,8-diaza-spiro[4.5]decan-1-one], the IC50 worked out at 30 nM.

As to `O=C1N(c2ccc(OCC(F)(F)F)cc2)CCC12CCN(S(=O)(=O)c1ccccc1OC(F)(F)F)CC2` [Example 79, 2-[4-(2,2,2-Trifluoro-ethoxy)-phenyl]-8-(2-trifluoromethoxy-benzenesulfonyl)-2,8-diaza-spiro[4.5]decan-1-one], the IC50 was 40 nM.

As for `O=C1N(c2ccc(OS(=O)(=O)C3CC3)cc2)CCC12CCN(S(=O)(=O)c1ccccc1OC(F)(F)F)CC2` [Example 80, Cyclopropanesulfonic acid 4-[1-oxo-8-(2-trifluoromethoxy-benzenesulfonyl)-2,8-diaza-spiro[4.5]dec-2-yl]-phenyl ester], the IC50 was 50 nM.

Regarding `O=C1N(c2ccc(CC(F)(F)F)cc2)CCC12CCN(S(=O)(=O)c1ccc(F)cc1C(F)(F)F)CC2` [Example 81, 8-(4-Fluoro-2-trifluoromethyl-benzenesulfonyl)-2-[4-(2,2,2-trifluoro-ethyl)-phenyl]-2,8-diaza-spiro[4.5]decan-1-one], the IC50 came to 90 nM.

As for `O=C1N(c2ccc(C3CC3)cc2)CCC12CCN(S(=O)(=O)c1ccccc1OC(F)(F)F)CC2` [Example 82, 2-(4-Cyclopropyl-phenyl)-8-(2-trifluoromethoxy-benzenesulfonyl)-2,8-diaza-spiro[4.5]decan-1-one], the IC50 turned out to be 110 nM.

As to `CS(=O)(=O)Oc1ccc(N2CCC3(CCN(S(=O)(=O)c4ccc(F)cc4C(F)(F)F)CC3)C2=O)cc1` [Example 83, Methanesulfonic acid 4-[8-(4-fluoro-2-trifluoromethyl-benzenesulfonyl)-1-oxo-2,8-diaza-spiro[4.5]dec-2-yl]-phenyl ester], the IC50 was 40 nM.

As for `CCCCOc1ccc(N2CCC3(CCN(S(=O)(=O)CC(C)C)CC3)C2=O)cc1` [Example 84, 2-(4-Butoxy-phenyl)-8-(2-methyl-propane-1-sulfonyl)-2,8-diaza-spiro[4.5]decan-1-one], the IC50 turned out to be 200 nM.

With `CCC(C)Oc1ccc(N2CCC3(CCN(S(=O)(=O)CC(C)C)CC3)C2=O)cc1` (stereo not drawn) [Example 85, 2-(4-sec-Butoxy-phenyl)-8-(2-methyl-propane-1-sulfonyl)-2,8-diaza-spiro[4.5]decan-1-one], the IC50 was 100 nM.

As for `CC(C)CS(=O)(=O)N1CCC2(CCN(c3ccc(OC(C)C(F)(F)F)cc3)C2=O)CC1` (stereo not drawn) [Example 86, 8-(2-Methyl-propane-1-sulfonyl)-2-[4-(2,2,2-trifluoro-1-methyl-ethoxy)-phenyl]-2,8-diaza-spiro[4.5]decan-1-one], the IC50 amounted to 80 nM.

For the compound `CC(C)Oc1ccc(N2CCC3(CCN(S(=O)(=O)c4ccccc4OC(F)(F)F)CC3)C2=O)cc1` [Example 87, 2-(4-Isopropoxy-phenyl)-8-(2-trifluoromethoxy-benzenesulfonyl)-2,8-diaza-spiro[4.5]decan-1-one], the IC50 worked out at 20 nM.

Turning to `CCCCOc1ccc(N2CCC3(CCN(S(=O)(=O)c4ccccc4OC(F)(F)F)CC3)C2=O)cc1` [Example 88, 2-(4-Butoxy-phenyl)-8-(2-trifluoromethoxy-benzenesulfonyl)-2,8-diaza-spiro[4.5]decan-1-one], the IC50 amounted to 50 nM.

In the case of `CC(Oc1ccc(N2CCC3(CCN(S(=O)(=O)c4ccccc4OC(F)(F)F)CC3)C2=O)cn1)C(F)(F)F` (stereo not drawn) [Example 89, 8-(2-Trifluoromethoxy-benzenesulfonyl)-2-[6-(2,2,2-trifluoro-1-methyl-ethoxy)-pyridin-3-yl]-2,8-diaza-spiro[4.5]decan-1-one], the IC50 was determined as 30 nM.

With `CCC(C)Oc1ccc(N2CCC3(CCN(S(=O)(=O)c4ccccc4OC(F)(F)F)CC3)C2=O)cc1` (stereo not drawn) [Example 90, 2-(4-sec-Butoxy-phenyl)-8-(2-trifluoromethoxy-benzenesulfonyl)-2,8-diaza-spiro[4.5]decan-1-one], the IC50 came out at 20 nM.
